Data: patent publication US20250162973A1, “METHODS OF SYNTHESIS AND USES OF AGRIMOL COMPOUNDS” (Versitech Limited, priority 2022, published 2025)
Where two headings read alike, the source gives them in different places.

Assays:
[1] = system: H460 cell line; test: MTT cell viability assay; format: cell-based, human; conditions: MTT method
Protocol: (§1) SUNE1 (nasopharyngeal carcinoma), AGS (gastric adenocarcinoma), HeLa (cervix adenocarcinoma), HepG2 (hepatocellular carcinoma), U-87 MG (human glioblastoma cell), U2OS (osteosarcoma), MCF-7 (breast adenocarcinoma), MDA-MB-231 (breast adenocarcinoma), HCT116 (colorectal carcinoma), SW480 (colorectal adenocarcinoma), NCI-H460 (large cell lung carcinoma), NCI-H1650 (adenocarcinoma lung carcinoma), HCC827 (adenocarcinoma lung carcinoma), A549 (lung carcinoma), and CCD-19Lu (human lung fibroblast normal cell) were all obtained from American Type Culture Collection (ATCC, Manassas, VA, USA). Minimum Essential Media (MEM, Gibco®, ThermoFisher Scientific), Dulbecco's Modified Eagle Medium (DMEM, Gibco®, ThermoFisher Scientific), and RPMI-1640 Medium (Gibco®, ThermoFisher Scientific) supplemented with 10% Fetal Bovine Serum (Gibco®, ThermoFisher Scientific), and 100 U/mL penicillin-streptomycin (Gibco™, ThermoFisher Scientific) were used for cell culture. Cells were placed into an incubator with 5% CO2 that temperature was set at 37° C. For subculturing cells, 0.05% Trypsin-EDTA (Gibco®) was used for detaching and a subcultivation ratio of 1:5 was used.
(§2) The cell viability assay was performed by a typical MTT assay. Briefly, 5*10^3 cells were seeded in the 96-well flat bottom plate and allowed to attach overnight. After drug treatment with a serial dilution from 100 μM for 48 h, 10 μL of MTT solution (5 mg/ml prepared in PBS, filtered) was added into each well and incubate for 4 h at 37° C. The formed formazan was then dissolved with SDS solution (10% SDS in 10 mM HCl) and followed the determination of absorbance at 590 nm by a microplate reader. The change in cell viability was then calculated for each drug concentration, then normalized to control. Dose response curves from each assay were fit to a Boltzmann sigmoidal function (GraphPad Prism8, version8.0.0). The cytotoxicity of AGB and its derivatives was determined by the calculation of IC50 value (half maximal inhibitory concentration) from fitted curves, which was the concentration of drug induced 50% cell viability.

[2] = system: HeLa cell line; test: MTT cell viability assay; format: cell-based, human; conditions: MTT method
Protocol: as §1, §2

[3] = system: A549; test: MTT cell viability assay; format: cell-based; conditions: Homo sapiens, MTT method, 48h, Table 6
Protocol: as §1, §2

[4] = system: Golgi complex in NCI-H460 cells; test: Golgi integrity, anti-GM130 immunostaining; format: cell-based, human
Source text: Based on the ProTargetMiner analysis results, the mitochondrial function and ER stress were studied. […] In cells, proteins were initially synthesized in ER and transport to Golgi apparatus for processing. When a drug blocked ER to Golgi trafficking, the Golgi apparatus would suffer from a dramatic redistribution and disruption. This blocking causes accumulation of unmatured proteins in the ER, thereby disrupting the structure of Golgi apparatus and inducing ER stress. The Golgi disrupting agent, brefeldin A (BFA) was used as a positive control drug. […] The effects of BFA and AGB on the integrity of the Golgi complex were assessed by immunostaining using an anti-GM130 antibody, one of Golgi markers.

[5] = system: AGS cell line; test: MTT cell viability assay; format: cell-based, human; conditions: MTT method, 48 h
Protocol: as §1, §2

[6] = system: MDA-MB-231 cell line; test: MTT cell viability assay; format: cell-based, human; conditions: MTT method, 48 h
Protocol: as §1, §2

[7] = system: human cancer cell lines (MDA-MB-231, MCF-7, HepG2, HeLa, AGS, HCT116, SW480, SUNE-1, H460, HCC827, H1650, A549); test: MTT cell viability assay, panel of human cancer cell lines; format: cell-based; conditions: four different cancer cell lines, 48-h treatment
Protocol: as §1, §2

[8] = Homo sapiens, NCI-H460, 48h, Table 6, read-out: IC50 H460
[9] = Homo sapiens, HeLa, 48h, Table 6, read-out: IC50 HeLa
[10] = 48 h, read-out: IC50 H460 cell line
[11] = 48 h, read-out: IC50 HeLa cell line

Row | Molecule | IC50 [1, 8] | IC50 [2, 9] | IC50 [3] | also measured
1 | C[C@H]1CCC/C=C/[C@@H]2C[C@H](O)C[C@H]2[C@H](O)/C=C/C(=O)O1 [BFA, brefeldin A] |  |  |  | GM130 distribution (Golgi integrity) [4]: redistribution of GM130
2 | CCC(C)C(=O)c1c(O)c(Cc2ccccc2O)c(Cl)c(C(=O)OC)c1O (stereo not drawn) | 2.05 µM |  |  | 
3 | CCCC(=O)c1c(O)c(Cc2c(O)c(C)c(O)c(Cc3c(O)c(C)c(OC)c(C(=O)CCC)c3O)c2O)c(O)c(C)c1OC | 3.78 µM |  |  | 
4 | Agrimol H [AGH] |  |  |  | IC50 [5]: 5.43 µM; IC50 [1, 10]: 2.66 µM; IC50 [2, 11]: 1.55 µM; IC50 [6]: 2.84 µM
5 | CCCC(=O)c1c(O)cc(O)c(C)c1OC [AGS] |  |  |  | cytotoxicity compared with AGB [7]: significantly lower cytotoxicity than AGB; IC50 ([5]; Homo sapiens, AGS): > 50 µM; IC50 ([1]; Homo sapiens, NCI-H460, 48 h, read-out: IC50 H460 cell line): > 50 µM; IC50 ([2]; Homo sapiens, HeLa, 48 h, read-out: IC50 HeLa cell line): > 50 µM; IC50 ([6]; Homo sapiens, MDA-MB-231): > 50 µM
6 | CCCC(=O)c1c(O)c(Cc2c(O)c(C)c(OC)c(C(=O)CCC)c2O)c(O)c(Cc2c(O)c(C)c(OC)c(C(=O)CCC)c2O)c1O [AGC, Agrimol C] |  |  |  | IC50 [5]: 8.01 µM; IC50 [1, 10]: 1.76 µM; IC50 [2, 11]: 1.52 µM; IC50 [6]: 2.44 µM
7 | Agrimol L [AGL] |  |  |  | cytotoxicity compared with AGB [7]: significantly lower cytotoxicity than AGB; IC50 [5]: > 50 µM; IC50 [1, 10]: > 50 µM; IC50 [2, 11]: 35.1 µM; IC50 [6]: > 50 µM
8 | CCC(C)C(=O)c1c(O)c(Cc2cc(C)ccc2O)c(O)c(C(=O)OC)c1O (stereo not drawn) | 2.99 µM | 3.96 µM | 20.5 µM | 

Continued, in another order:

Row | IC50 [1, 8] | IC50 [2, 9] | IC50 [3] | Molecule | also measured
9 | 1.14 µM |  |  | CCCC(=O)c1c(O)c(Cc2c(O)c(C(=O)OC)c(O)c(C(=O)C(C)C)c2O)c(O)c(C)c1OC | 
10 | 2.3 µM | 1.44 µM |  | CCCC(=O)c1c(O)c(Cc2c(O)c(Cc3c(O)c(C)c(OC)c(C(=O)CCC)c3O)c(O)c(C(=O)C3CCCCC3)c2O)c(O)c(C)c1OC | 
11 | 3.13 µM | 3.24 µM | 28.4 µM | CCCC(=O)c1c(O)c(Cc2c(O)c(C(=O)c3ccccc3)c(O)c(C(=O)c3ccccc3)c2O)c(O)c(C)c1OC | 
12 | 2.3 µM | 2.06 µM | 8.53 µM | CCCC(=O)c1c(O)c(Cc2c(O)c(Cc3cc(OC)c(OC)c(OC)c3)c(O)c(C(=O)C(C)CC)c2O)c(O)c(C)c1OC (stereo not drawn) | 
13 | 2.75 µM | 1.23 µM | 19.3 µM | CCCC(=O)c1c(O)c(Cc2c(O)c(Cc3c(O)c(C)c(OC)c(C(=O)CCC)c3O)c(O)c(C(=O)c3ccccc3)c2O)c(O)c(C)c1OC | 
14 | 4.67 µM | 3.56 µM | 41.9 µM | CCC(=O)c1c(O)c(Cc2c(O)c(Cc3c(O)c(C)c(OC)c(C(=O)CC)c3O)c(O)c(C(=O)CCC(O)OC)c2O)c(O)c(C)c1OC (stereo not drawn) | 
